Measurements reported in US8324226B2, “Therapeutic oxy-phenyl-aryl compounds and their use” (Cancer Research Technology Limited, priority 2007, dated 2012).
“And” between values parts separate entries of the source, which are not always exact repeats. Identical values can stand only once. Like-named read-outs stand apart in the source and are kept apart here.

Target: T1, CHK2 (Homo sapiens, UniProt O96017)
T1 construct: made in house
Experiment: CHK2 kinase activity assay (DELFIA, phosphorylation of a CDC25C peptide)
Format: biochemical
Settings: ATP 30 μM, CHK2 1 nM, read-out: IC50, inhibition of CHK2 kinase activity in vitro

T1 sequence (O96017 whole entry): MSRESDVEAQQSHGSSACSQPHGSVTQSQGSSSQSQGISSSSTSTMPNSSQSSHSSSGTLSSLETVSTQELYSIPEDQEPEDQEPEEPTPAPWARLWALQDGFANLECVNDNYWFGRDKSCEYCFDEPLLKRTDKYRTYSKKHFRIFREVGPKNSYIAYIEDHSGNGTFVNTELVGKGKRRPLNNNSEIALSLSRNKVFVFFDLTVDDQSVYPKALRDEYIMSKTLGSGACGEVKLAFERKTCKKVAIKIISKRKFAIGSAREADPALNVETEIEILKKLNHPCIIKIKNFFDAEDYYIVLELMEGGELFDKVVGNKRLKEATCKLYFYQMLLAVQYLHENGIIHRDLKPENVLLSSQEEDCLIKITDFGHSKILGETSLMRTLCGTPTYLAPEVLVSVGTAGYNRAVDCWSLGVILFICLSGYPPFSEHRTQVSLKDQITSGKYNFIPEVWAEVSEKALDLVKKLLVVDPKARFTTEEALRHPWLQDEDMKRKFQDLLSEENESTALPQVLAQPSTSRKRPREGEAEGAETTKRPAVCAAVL

Row | SMILES | IC50 (following further studies) | IC50 (first set of tested compounds) [µM]
1 | COc1ccc([C@@H]2CNC[C@H]2Nc2nc(-c3cc(F)ccc3O)nc3ccccc23)cc1 (relative stereo) [Compound A-090, 4-Fluoro-2-(4-(trans-4-(4-methoxyphenyl)pyrrolidin-3-ylamino)quinazolin-2-yl)phenol] | ≤ 0.3 µM | –
2 | COc1cccc([C@@H]2CNC[C@H]2Nc2nc(-c3cc(F)ccc3O)nc3ccccc23)c1 (relative stereo) [Compound A-091, 4-Fluoro-2-(4-(trans-4-(3-methoxyphenyl)pyrrolidin-3-ylamino)quinazolin-2-yl)phenol] | ≤ 0.3 µM | –
3 | COc1ccccc1[C@@H]1CNC[C@H]1Nc1nc(-c2cc(F)ccc2O)nc2ccccc12 (relative stereo) [Compound A-092, 4-Fluoro-2-(4-trans(4-(2-methoxyphenyl)pyrrolidin-3-ylamino)quinazolin-2-yl)phenol] | 0.3 to 3 µM | –
4 | N[C@@H]1CCCC[C@@H]1Nc1nc(-c2ccccc2O)nc2ccccc12 (relative stereo) [Compound B-002] | 3 to 30 µM and 3.8 µM | 3 to 30
5 | N[C@@H]1CCCC[C@H]1Nc1nc(-c2ccccc2O)nc2ccccc12 (relative stereo) [Compound B-003, 2-[4-(trans-2-Aminocyclohexylamino)-quinazolin-2-yl]-phenol] | 0.3 to 3 µM | < 3
6 | CN1CCCC(Nc2nc(-c3ccccc3O)nc3ccccc23)C1 (stereo not drawn) [Compound A-001, 2-[4-(1-Methyl-piperidin-3-yl-amino)-quinazolin-2-yl]-phenol] | 0.3 to 3 µM and 1.6 µM | < 3
7 | CN1CCC(Nc2nc(-c3ccccc3O)nc3ccccc23)CC1 [Compound A-003, 2-[4-(1-Methylpiperidin-4-ylamino)-quinazolin-2-yl]-phenol] | 0.3 to 3 µM | < 3
8 | CN1CCC[C@H](Nc2nc(-c3ccccc3O)nc3ccccc23)C1 [Compound A-007, 2-[4-((S)-1-Methylpiperidin-3-ylamino)-quinazolin-2-yl]-phenol] | 3 to 30 µM | 3 to 30
9 | CN1CCC[C@@H](Nc2nc(-c3ccccc3O)nc3ccccc23)C1 [Compound A-008, 2-[4-((R)-1-Methylpiperidin-3-ylamino)-quinazolin-2-yl]-phenol] | 0.3 to 3 µM | < 3
10 | Oc1ccccc1-c1nc(N[C@H]2CCN(Cc3ccccc3)C2)c2ccccc2n1 [Compound A-011, 2-[4-((S)-1-Benzylpyrrolidin-3-ylamino)-quinazolin-2-yl]-phenol] | 3 to 30 µM | 3 to 30
11 | Oc1ccccc1-c1nc(N[C@H]2CCNC2)c2ccc(-c3ccccc3)cc2n1 [Compound A-020, (S)-2-(7-phenyl-4-(pyrrolidinyl-3-ylamino)quinazolin-2-yl)phenol] | 0.3 to 3 µM | < 3
12 | Oc1ccccc1-c1nc(N[C@H]2CCNC2)c2cc(-c3ccccc3)ccc2n1 [Compound A-025, (S)-2-(6-Phenyl-4-(pyrrolidinyl-3-ylamino)quinazolin-2-yl)phenol] | 3 to 30 µM | 3 to 30
13 | Oc1ccccc1-c1nc(N[C@H]2CCNC2)c2ccc(-c3ccc(CN4CCOCC4)cc3)cc2n1 [Compound A-027, (S)-2-(7-(4-(Morpholinomethyl)phenyl)-4-(pyrrolidin-3-ylamino)quinazolin-2-yl)phenol] | ≤ 0.3 µM | < 3
14 | Oc1ccccc1-c1nc(N[C@H]2CCNC2)c2cc(-c3ccc(CN4CCOCC4)cc3)ccc2n1 [Compound A-028, (S)-2-(6-(4-(Morpholinomethyl)phenyl)-4-(pyrrolidin-3-ylamino)quinazolin-2-yl)phenol] | 0.3 to 3 µM | < 3
15 | Oc1ccccc1-c1nc(N[C@H]2CCNC2)c2cc(-c3cn[nH]c3)ccc2n1 [Compound A-029, (S)-2-(6-(1H-Pyrazol-4-yl)-4-(pyrrolidin-3-ylamino)quinazolin-2-yl)phenol] | 0.3 to 3 µM | < 3
16 | O=C(NCc1ccccc1)[C@H]1C[C@H](Nc2nc(-c3ccccc3O)nc3ccccc23)CN1 [Compound A-031, (2R,4S)-N-Benzyl-4-(2-(2-hydroxyphenyl)quinazolin-4-ylamino)pyrrolidine-2-carboxamide] | 0.3 to 3 µM | < 3
17 | CNC(=O)[C@H]1C[C@H](Nc2nc(-c3ccccc3O)nc3ccccc23)CN1 [Compound A-032, (2R,4S)-4-(2-(2-Hydroxyphenyl)quinazolin-4-ylamino)-N-methylpyrrolidine-2-carboxamide] | 0.3 to 3 µM | < 3
18 | O=C([C@H]1C[C@H](Nc2nc(-c3ccccc3O)nc3ccccc23)CN1)N1CCCC1 [Compound A-034, ((2R,4S)-4-(2-(2-Hydroxyphenyl)quinazolin-4-ylamino)pyrrolidin-2-yl)(pyrrolidin-1-yl)methanone] | ≤ 0.3 µM | < 3
19 | O=C([C@H]1C[C@H](Nc2nc(-c3ccccc3O)nc3ccccc23)CN1)N1CCNCC1 [Compound A-035, ((2R,4S)-4-(2-(2-Hydroxyphenyl)quinazolin-4-ylamino)pyrrolidin-2-yl)(piperazin-1-yl)methanone] | 0.3 to 3 µM | < 3
20 | CN1CCN(C(=O)[C@H]2C[C@H](Nc3nc(-c4ccccc4O)nc4ccccc34)CN2)CC1 [Compound A-036, ((2R,4S)-4-(2-(2-Hydroxyphenyl)quinazolin-4-ylamino)pyrrolidin-2-yl)(4-methylpiperazin-1-yl)methanone] | 0.3 to 3 µM | < 3
21 | O=C([C@H]1C[C@H](Nc2nc(-c3ccccc3O)nc3ccccc23)CN1)N1CCCCC1 [Compound A-037, ((2R,4S)-4-(2-(2-Hydroxyphenyl)quinazolin-4-ylamino)pyrrolidin-2-yl)(piperidin-1-yl)methanone] | ≤ 0.3 µM | < 3
22 | O=C([C@H]1C[C@H](Nc2nc(-c3ccccc3O)nc3ccccc23)CN1)N1CCOCC1 [Compound A-038, ((2R,4S)-4-(2-(2-Hydroxyphenyl)quinazolin-4-ylamino)pyrrolidin-2-yl)(morpholino)methanone] | ≤ 0.3 µM | < 3
23 | O=C(Nc1ccccc1)[C@H]1C[C@H](Nc2nc(-c3ccccc3O)nc3ccccc23)CN1 [Compound A-039, (2R,4S)-4-(2-(2-Hydroxyphenyl)quinazolin-4-ylamino)-N-phenylpyrrolidine-2-carboxamide] | 0.3 to 3 µM | < 3
24 | CN(CCO)C(=O)[C@H]1C[C@H](Nc2nc(-c3ccccc3O)nc3ccccc23)CN1 [Compound A-047, (2R,4S)-N-(2-Hydroxyethyl)-4-(2-(2-hydroxyphenyl)quinazolin-4-ylamino)-N-methylpyrrolidine-2-carboxamide] | 0.3 to 3 µM | < 3

Next, values leading:

Row | IC50 (following further studies) | IC50 (first set of tested compounds) [µM] | SMILES
25 | 0.3 to 3 µM | – | Oc1ccc(Cl)cc1-c1nc(N[C@@H]2CNC[C@H]2c2ccccc2)c2ccccc2n1 (relative stereo) [Compound A-063, 4-Chloro-2-(4-(trans-4-phenylpyrrolidin-3-ylamino)quinazolin-2-yl)phenol]
26 | 0.3 to 3 µM | – | Oc1ccc(F)cc1-c1nc(N[C@@H]2CNC[C@H]2c2cccc(Cl)c2)c2ccccc2n1 (relative stereo) [Compound A-083]
27 | 0.3 to 3 µM | – | O=C(O)[C@@H]1CNC[C@H]1Nc1nc(-c2cc(F)ccc2O)nc2ccccc12 (relative stereo) [Compound A-089, trans-4-(2-(5-Fluoro-2-hydroxyphenyl)quinazolin-4-ylamino)pyrrolidine-3-carboxylic acid]
28 | ≤ 0.3 µM | – | C[C@@H]1CNC[C@H]1Nc1nc(-c2cc(F)ccc2O)nc2ccccc12 (relative stereo) [Compound A-099, 4-Fluoro-2-(4-(trans-4-methylpyrrolidin-3-ylamino)quinazolin-2-yl)phenol]
29 | ≤ 0.3 µM | < 3 | Oc1ccc(Cl)cc1-c1nc(N[C@@H]2CCCNC2)c2ccccc2n1 [Compound A-013, (R)-4-Chloro-2-(4-(piperidin-3-ylamino)quinazolin-2-yl)phenol]
30 | ≤ 0.3 µM | < 3 | Oc1ccc(F)cc1-c1nc(N[C@@H]2CCCNC2)c2ccccc2n1 [Compound A-014, (R)-4-Fluoro-2-(4-(piperidin-3-ylamino)quinazolin-2-yl)phenol]
31 | 0.3 to 3 µM | < 3 | Oc1ccccc1-c1nc(N[C@H]2CCNC2)c2cc(Br)ccc2n1 [Compound A-016, (S)-2-(6-Bromo-4-(pyrrolidin-3-ylamino)quinazolin-2-yl)phenol]
32 | 3 to 30 µM | 3 to 30 | CC(C)(C)c1ccc(O)c(-c2nc(N[C@H]3CCNC3)c3ccccc3n2)c1 [Compound A-022, (S)-4-tert-Butyl-2-(4-(pyrrolidin-3-ylamino)quinazolin-2-yl)phenol]
33 | ≤ 0.3 µM | < 3 | COC(=O)[C@H]1C[C@H](Nc2nc(-c3cc(Cl)ccc3O)nc3ccccc23)CN1 [Compound A-026, (2R,4S)-Methyl 4-(2-(5-chloro-2-hydroxyphenyl)quinazolin-4-ylamino)pyrrolidine-2-carboxylate]
34 | ≤ 0.3 µM | < 3 | COC(=O)c1ccc(O)c(-c2nc(N[C@H]3CCNC3)c3ccccc3n2)c1 [Compound A-033, (S)-Methyl 4-hydroxy-3-(4-(pyrrolidin-3-ylamino)quinazolin-2-yl)benzoate]
35 | ≤ 0.3 µM | < 3 | Oc1ccc(Br)cc1-c1nc(N[C@H]2CCNC2)c2ccccc2n1 [Compound A-041, (S)-4-Bromo-2-(4-(pyrrolidin-3-ylamino)quinazolin-2-yl)phenol]
36 | ≤ 0.3 µM | < 3 | CN(c1nc(-c2cc(F)ccc2O)nc2ccccc12)[C@H]1CCNC1 [Compound A-043, (S)-4-Fluoro-2-(4-(methyl(pyrrolidin-3-yl)amino)quinazolin-2-yl)phenol]
37 | ≤ 0.3 µM | < 3 | CN(c1nc(-c2cc(Cl)ccc2O)nc2ccccc12)[C@H]1CCNC1 [Compound A-044, (S)-4-Chloro-2-(4-(methyl(pyrrolidin-3-yl)amino)quinazolin-2-yl)phenol]
38 | ≤ 0.3 µM | < 3 | CN(C)C(=O)[C@H]1C[C@H](Nc2nc(-c3cc(F)ccc3O)nc3ccccc23)CN1 [Compound A-046, (2R,4S)-4-(2-(5-Fluoro-2-hydroxyphenyl)quinazolin-4-ylamino)-N,N-dimethylpyrrolidine-2-carboxamide]
